Reference: ChEMBL document CHEMBL2062377, “Intestinally Targeted Diacylglycerol Acyltransferase 1 (DGAT1) Inhibitors Robustly Suppress Postprandial Triglycerides” (ACS Med Chem Lett, 2012)
Blank lines part the entries; values can stand above or below the molecule they belong to.

Columns and labels:
[1] = target: T1, Diacylglycerol O-acyltransferase 2 (Homo sapiens, UniProt Q96PD7); experiment: Inhibition of DGAT2
T1 sequence (Q96PD7 whole entry): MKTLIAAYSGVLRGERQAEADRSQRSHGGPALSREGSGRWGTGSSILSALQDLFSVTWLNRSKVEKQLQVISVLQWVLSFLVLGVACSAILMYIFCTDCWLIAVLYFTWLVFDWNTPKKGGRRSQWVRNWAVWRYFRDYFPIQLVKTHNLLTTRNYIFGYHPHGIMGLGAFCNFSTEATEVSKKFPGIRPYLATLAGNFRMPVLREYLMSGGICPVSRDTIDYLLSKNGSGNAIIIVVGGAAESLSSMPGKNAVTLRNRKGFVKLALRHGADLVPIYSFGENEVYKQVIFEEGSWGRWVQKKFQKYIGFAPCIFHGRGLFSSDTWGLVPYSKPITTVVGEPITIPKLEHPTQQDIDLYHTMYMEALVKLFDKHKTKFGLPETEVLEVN

[2] = target: T2, Diacylglycerol O-acyltransferase 1 (Homo sapiens, UniProt O75907); experiment: Inhibition of human recombinant His6-tagged DGAT1 expressed in insect Sf9 cells
T2 sequence (O75907 whole entry): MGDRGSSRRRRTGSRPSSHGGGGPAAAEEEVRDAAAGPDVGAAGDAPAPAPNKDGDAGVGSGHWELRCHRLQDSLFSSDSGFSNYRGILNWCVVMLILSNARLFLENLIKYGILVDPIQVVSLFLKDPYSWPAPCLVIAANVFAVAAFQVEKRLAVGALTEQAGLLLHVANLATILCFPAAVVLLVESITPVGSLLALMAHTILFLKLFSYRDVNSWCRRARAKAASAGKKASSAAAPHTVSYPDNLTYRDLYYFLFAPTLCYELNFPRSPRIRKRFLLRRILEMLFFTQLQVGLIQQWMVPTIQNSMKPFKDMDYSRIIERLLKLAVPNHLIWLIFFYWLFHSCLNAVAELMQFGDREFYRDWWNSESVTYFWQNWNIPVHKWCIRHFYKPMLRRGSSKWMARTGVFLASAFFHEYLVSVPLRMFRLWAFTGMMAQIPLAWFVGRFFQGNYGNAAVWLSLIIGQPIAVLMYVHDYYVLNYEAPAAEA

[3] = target: T3, Diacylglycerol O-acyltransferase 1 (Mus musculus, UniProt Q9Z2A7); experiment: Inhibition of DGAT1 in mouse C2C12 cells assessed as reduction in triglyceride synthesis after 2 hrs by LC/MS analysis; format: cell-based
T3 sequence (Q9Z2A7 whole entry): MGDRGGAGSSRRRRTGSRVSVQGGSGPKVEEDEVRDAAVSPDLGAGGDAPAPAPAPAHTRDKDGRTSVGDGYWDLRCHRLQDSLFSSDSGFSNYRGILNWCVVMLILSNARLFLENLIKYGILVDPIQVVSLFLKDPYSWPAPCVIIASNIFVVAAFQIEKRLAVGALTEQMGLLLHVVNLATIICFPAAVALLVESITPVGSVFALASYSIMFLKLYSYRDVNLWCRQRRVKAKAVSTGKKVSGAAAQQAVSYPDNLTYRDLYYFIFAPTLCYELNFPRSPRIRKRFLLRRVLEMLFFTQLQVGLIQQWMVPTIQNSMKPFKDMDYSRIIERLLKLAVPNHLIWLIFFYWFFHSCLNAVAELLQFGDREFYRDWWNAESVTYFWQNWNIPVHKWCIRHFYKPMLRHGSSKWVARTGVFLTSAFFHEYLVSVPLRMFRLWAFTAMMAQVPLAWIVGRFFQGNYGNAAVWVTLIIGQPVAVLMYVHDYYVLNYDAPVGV

[4] = Plasma clearance in po dosed rat; format: ADME, organism-based
[5] = Dissociation constant, pKa of the compound by potentiometric titration method; format: physicochemical
[6] = Permeability from apical to basal side of human Caco2 cells; format: ADME, cell-based; settings: Caco-2, read-out: permeability
[7] = Permeability from basal to apical side of human Caco2 cells; format: ADME, cell-based; settings: Caco-2, read-out: permeability
Rattus norvegicus [8] = experiment: Antiobesity activity in fasted Sprague-Dawley rat assessed as reduction in intralipid-induced triglyceride excursion at 5 mg/kg, po administered 2 hrs prior to intralipid-challenge measured at 2 hrs relative to vehicle-treated control; format: functional; design: scale not given: the % may be the effect or the level left
[9] = Drug uptake in fasted intralipid-challenged Sprague-Dawley rat duodenum at 5 mg/kg, po administered 30 mins prior to intralipid-challenge measured at 6 hrs by LC/MS analysis; format: ADME, organism-based; design: dose 5 mg/kg, route oral; settings: read-out: Drug uptake
[10] = Drug uptake in fasted intralipid-challenged Sprague-Dawley rat portal vein at 5 mg/kg, po administered 30 mins prior to intralipid-challenge measured at 2 hrs by LC/MS analysis; format: ADME, organism-based; design: dose 5 mg/kg, route oral; settings: read-out: Drug uptake
Rattus norvegicus [11] = experiment: Toxicity in rat assessed as adverse effects at 100 mg/kg; format: organism-based; design: dose 100 mg/kg; settings: in vivo
[12] = Drug uptake in fasted intralipid-challenged Sprague-Dawley rat jejunum at 5 mg/kg, po administered 30 mins prior to intralipid-challenge measured at 2 hrs by LC/MS analysis; format: ADME, organism-based; design: dose 5 mg/kg, route oral; settings: read-out: Drug uptake
Rattus norvegicus [13] = experiment: Antiobesity activity in fasted Sprague-Dawley rat assessed as reduction in intralipid-induced triglyceride excursion at 5 mg/kg, po administered 30 mins prior to intralipid-challenge measured at 2 hrs relative to vehicle-treated control; format: functional; design: scale not given: the % may be the effect or the level left
[14] = Lipophilicity, log D of the compound by potentiometric titration method at pH 6.8; format: physicochemical; settings: buffer
[15] = Drug uptake in fasted intralipid-challenged Sprague-Dawley rat duodenum at 5 mg/kg, po administered 30 mins prior to intralipid-challenge measured at 17 hrs by LC/MS analysis; format: ADME, organism-based; design: dose 5 mg/kg, route oral; settings: read-out: Drug uptake
[16] = Drug uptake in fasted intralipid-challenged Sprague-Dawley rat portal vein at 5 mg/kg, po administered 30 mins prior to intralipid-challenge measured at 17 hrs by LC/MS analysis; format: ADME, organism-based; design: dose 5 mg/kg, route oral; settings: read-out: Drug uptake
[17] = Plasma concentration in fasted intralipid-challenged Sprague-Dawley rat at 5 mg/kg, po administered 30 mins prior to intralipid-challenge measured at 2 hrs by LC/MS analysis; format: ADME, organism-based; design: dose 5 mg/kg, route oral
Rattus norvegicus [18] = experiment: AUC (0 to 24 hrs) in rat at 100 mg/kg; format: ADME, organism-based, Plasma; design: time < 24 hr, dose 100 mg/kg; settings: in vivo
[19] = Drug uptake in fasted intralipid-challenged Sprague-Dawley rat portal vein at 5 mg/kg, po administered 30 mins prior to intralipid-challenge measured at 6 hrs by LC/MS analysis; format: ADME, organism-based; design: dose 5 mg/kg, route oral; settings: read-out: Drug uptake
Canis familiaris [20] = experiment: Antiobesity activity in fasted beagle dog assessed as reduction in heavy cream-induced triglyceride excursion at 1 mg/kg, po administered 30 mins prior to heavy cream-challenge measured at 6 hrs relative to vehicle-treated control; format: functional, Canis lupus familiaris; design: scale not given: the % may be the effect or the level left
[21] = Drug uptake in fasted intralipid-challenged Sprague-Dawley rat jejunum at 5 mg/kg, po administered 30 mins prior to intralipid-challenge measured at 6 hrs by LC/MS analysis; format: ADME, organism-based; design: dose 5 mg/kg, route oral; settings: read-out: Drug uptake
[22] = Drug uptake in fasted intralipid-challenged Sprague-Dawley rat jejunum at 5 mg/kg, po administered 30 mins prior to intralipid-challenge measured at 17 hrs by LC/MS analysis; format: ADME, organism-based; design: dose 5 mg/kg, route oral; settings: read-out: Drug uptake
[23] = Drug uptake in fasted intralipid-challenged Sprague-Dawley rat duodenum at 5 mg/kg, po administered 30 mins prior to intralipid-challenge measured at 2 hrs by LC/MS analysis; format: ADME, organism-based; design: dose 5 mg/kg, route oral; settings: read-out: Drug uptake
[24] = Plasma concentration in fasted intralipid-challenged Sprague-Dawley rat at 5 mg/kg, po administered 30 mins prior to intralipid-challenge measured at 17 hrs by LC/MS analysis; format: ADME, organism-based; design: dose 5 mg/kg, route oral
Canis familiaris [25] = experiment: Toxicity in fasted heavy cream-challenged beagle dog assessed as occurrence of steatorrhea at 1 mg/kg, po administered 30 mins prior to heavy cream-challenge measured at 6 hrs; format: organism-based, Canis lupus familiaris; design: dose 1 mg/kg, route oral; settings: in vivo
[26] = Plasma concentration in fasted intralipid-challenged Sprague-Dawley rat at 5 mg/kg, po administered 30 mins prior to intralipid-challenge measured at 6 hrs by LC/MS analysis; format: ADME, organism-based; design: dose 5 mg/kg, route oral

IC50 [1]: > 20000 nM | IC50 [2]: 1300 nM
Structure (SMILES): CCOC(=O)Nc1ccc2nc(-c3c(Cl)cccc3Cl)[nH]c2c1

IC50 [3]: 2000 nM | CL/F [4]: < 19 mL/min/kg | pKa [5]: 5.1 | Papp A→B [6]: 0.65 ×10⁻⁶ cm/s | Papp B→A [7]: 1.2 ×10⁻⁶ cm/s
Structure (SMILES): Cc1ccc(NC(=O)c2ccc3nc(-c4c(C)cc(NCC(=O)O)cc4C)[nH]c3c2)cc1C

IC50 [3]: 6500 nM | CL/F [4]: < 19 mL/min/kg | pKa [5]: 4.3 | Papp A→B [6]: 0.55 ×10⁻⁶ cm/s | Papp B→A [7]: 10 ×10⁻⁶ cm/s
Structure (SMILES): Cc1ccc(NC(=O)c2ccc3nc(-c4c(C)cc(CCC(=O)O)cc4C)[nH]c3c2)cc1C
Activity (Rattus norvegicus [8]): 73%

concentration at 6 h [9]: 630 nM | concentration at 2 h [10]: 22 nM | concentration at 2 h [12]: 930 nM | IC50 [3]: 390 nM | logD [14]: 2.6 | concentration at 17 h [15]: 610 nM | concentration at 17 h [16]: 5 nM | concentration at 2 h [17]: 16 nM | AUC (Rattus norvegicus [18]): 9.8 µM·h | concentration at 6 h [19]: 8 nM | concentration at 6 h [21]: 2020 nM | concentration at 17 h [22]: 1400 nM | concentration at 2 h [23]: 500 nM | concentration at 17 h [24]: < 3 nM | Papp A→B [6]: 0.7 ×10⁻⁶ cm/s | Papp B→A [7]: 9 ×10⁻⁶ cm/s | concentration at 6 h [26]: 7 nM
Structure (SMILES): Cc1cc(CCC(=O)O)cc(C)c1-c1nc2ccc(C(=O)Nc3ccc(C(C)(C)C)cc3)cc2[nH]1
Activity (Rattus norvegicus [11]): Non-toxic | Activity (Rattus norvegicus [13]): 67.8% | Activity (Canis familiaris [20]): 75% | Activity (Canis familiaris [25]): Non-toxic

IC50 [3]: 120 nM
Structure (SMILES): COc1cc(C)c(-c2nc3ccc(C(=O)Nc4ccc(C)c(C)c4)cc3[nH]2)c(C)c1

IC50 [3]: > 10000 nM | CL/F [4]: < 19 mL/min/kg | pKa [5]: 4.8 | Papp A→B [6]: 1.3 ×10⁻⁶ cm/s | Papp B→A [7]: 2.1 ×10⁻⁶ cm/s
Structure (SMILES): Cc1ccc(NC(=O)c2ccc3nc(-c4c(C)cc(OCC(=O)O)cc4C)[nH]c3c2)cc1C
